Measured values from PubChem BioAssay AID248 (DTP/NCI, 2004).
Where “and” joins values, the source holds several entries; their conditions need not be identical. Identical values can stand only once. Toxic doses and inconclusive results are not listed. Rule as the data show it: active = T/C of 150% or more; inactive = T/C below 125%.

Test system: L1210 leukemia ip in BDF1 mice, survival T/C
Assay: NCI In Vivo Anticancer Drug Screen. Data for tumor model L1210 Leukemia (intraperitoneal) in B6D2F1 (BDF1) mice
Settings: endpoint: mean survival time, higher = longer survival
Outline: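 Survival endpoint. Drug-treated group vs vehicle group, expressed as T divided by C. Tumor passaged by transplantation.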

[1] = dose: 100.0 mg/kg/injection, schedule: Q04DX003 (ip), vehicle: Klucel (hydroxypropylcellulose) (HPC)
[2] = dose: 200.0 mg/kg/injection, schedule: Q04DX003 (ip), vehicle: Klucel (hydroxypropylcellulose) (HPC)
[3] = dose: 400.0 mg/kg/injection, schedule: Q04DX003 (ip), vehicle: Klucel (hydroxypropylcellulose) (HPC)
[4] = dose: 200.0 mg/kg/injection, schedule: Q04DX002 (ip), vehicle: saline with Tween-80
[5] = dose: 400.0 mg/kg/injection, schedule: Q04DX002 (ip), vehicle: saline with Tween-80
[6] = dose: 100.0 mg/kg/injection, schedule: Q01DX001 (ip), vehicle: saline
[7] = dose: 200.0 mg/kg/injection, schedule: Q01DX001 (ip), vehicle: saline
[8] = dose: 400.0 mg/kg/injection, schedule: Q01DX001 (ip), vehicle: saline
[9] = dose: 100.0 mg/kg/injection, schedule: Q01DX001 (ip), vehicle: saline with Tween-80
[10] = dose: 200.0 mg/kg/injection, schedule: Q01DX001 (ip), vehicle: saline with Tween-80
[11] = dose: 400.0 mg/kg/injection, schedule: Q01DX001 (ip), vehicle: saline with Tween-80
[12] = dose: 100.0 mg/kg/injection, schedule: Q01DX009 (ip), vehicle: saline with Tween-80
[13] = dose: 100.0 mg/kg/injection, schedule: Q04DX002 (ip), vehicle: saline with Tween-80
[14] = dose: 100.0 mg/kg/injection, schedule: Q04DX003 (ip), vehicle: saline with Tween-80
[15] = dose: 200.0 mg/kg/injection, schedule: Q01DX009 (ip), vehicle: saline with Tween-80
[16] = dose: 200.0 mg/kg/injection, schedule: Q04DX003 (ip), vehicle: saline with Tween-80
[17] = dose: 400.0 mg/kg/injection, schedule: Q01DX009 (ip), vehicle: saline with Tween-80
[18] = dose: 400.0 mg/kg/injection, schedule: Q04DX003 (ip), vehicle: saline with Tween-80

Measured: T/C

Nc1cc2c(cc1N)C(=O)c1ccccc1C2=O
inactive: dose: 100.0 mg/kg/injection, schedule: Q01DX001 (ip), vehicle: acetone 95 % of control | [1] 101 % of control | dose: 200.0 mg/kg/injection, schedule: Q01DX001 (ip), vehicle: acetone 98 % of control | [2] 94 % of control | dose: 400.0 mg/kg/injection, schedule: Q01DX001 (ip), vehicle: acetone 102 % of control | [3] 90 % of control

CN(N=O)C(=O)Nc1ccc(F)cc1
inactive: dose: 6.25 mg/kg/injection, schedule: Q01DX Z (ip), vehicle: carboxymethylcellulose (CMC) 110 % of control | dose: 12.5 mg/kg/injection, schedule: Q01DX Z (ip), vehicle: carboxymethylcellulose (CMC) 103 % of control | dose: 25.0 mg/kg/injection, schedule: Q01DX Z (ip), vehicle: carboxymethylcellulose (CMC) 111 % of control | dose: 75.0 mg/kg/injection, schedule: Q01DX001 (ip), vehicle: carboxymethylcellulose (CMC) 120 % of control

COc1ccc2c(c1)CC1c3[nH]c4ccccc4c3CCN1C2 (centres undefined)
inactive: dose: 100.0 mg/kg/injection, schedule: Q01DX001 (ip), vehicle: Klucel (hydroxypropylcellulose) (HPC) 94 % of control | dose: 200.0 mg/kg/injection, schedule: Q01DX001 (ip), vehicle: Klucel (hydroxypropylcellulose) (HPC) 92 % of control

CCCCCCCCCCCC[N+]1([O-])CCOCC1
inactive: [4] 94 % of control | [5] 102 % of control

O=[N+]([O-])c1ccc(Cl)cc1C1OCCO1
inactive: [6] 93 % of control | [7] 93 % of control | [8] 104 % of control

CS(=O)(=O)CC(=O)c1ccc(O)cc1O
inactive: [9] 106 % of control | [10] 103 % of control | [11] 95 % of control

COc1cc([N+](=O)[O-])ccc1NC(=S)NC(=O)c1ccc(Cl)cc1Cl
inactive: [9] 92 % of control | [12] 91 % of control and 92 % of control | [13] 104 % of control and 87 % of control | [14] 98 % of control | [10] 92 % of control | [15] 95 % of control and 97 % of control | [4] 93 % of control and 97 % of control | [16] 92 % of control | [11] 90 % of control | [17] 93 % of control and 94 % of control | [5] 95 % of control and 87 % of control | [18] 88 % of control

CCN(CC)CCN(C)c1cc(C)nc(/N=C(\N)Nc2ccc(Cl)c(Cl)c2)n1
inactive: dose: 18.75 mg/kg/injection, schedule: Q01DX009 (ip), vehicle: saline with Tween-80 92 % of control | dose: 37.5 mg/kg/injection, schedule: Q01DX009 (ip), vehicle: saline with Tween-80 103 % of control | dose: 37.5 mg/kg/injection, schedule: Q04DX003 (ip), vehicle: saline with Tween-80 93 % of control | dose: 75.0 mg/kg/injection, schedule: Q01DX009 (ip), vehicle: saline with Tween-80 92 % of control | dose: 75.0 mg/kg/injection, schedule: Q04DX003 (ip), vehicle: saline with Tween-80 97 % of control

S=C(NC1CCCCC1)N1CCC(CCCC2CCN(C(=S)NC3CCCCC3)CC2)CC1
inactive: [12] 95 % of control | [15] 97 % of control | [17] 97 % of control

Cc1ccc(NCC(O)CN2CCCC2)cc1 (centres undefined)
inactive: dose: 6.0 mg/kg/injection, schedule: Q01DX009 (ip), vehicle: Klucel (hydroxypropylcellulose) (HPC) 94 % of control | dose: 12.0 mg/kg/injection, schedule: Q01DX009 (ip), vehicle: Klucel (hydroxypropylcellulose) (HPC) 92 % of control | dose: 12.5 mg/kg/injection, schedule: Q01DX001 (ip), vehicle: Klucel (hydroxypropylcellulose) (HPC) 93 % of control | dose: 12.5 mg/kg/injection, schedule: Q04DX003 (ip), vehicle: Klucel (hydroxypropylcellulose) (HPC) 104 % of control | dose: 25.0 mg/kg/injection, schedule: Q01DX001 (ip), vehicle: Klucel (hydroxypropylcellulose) (HPC) 93 % of control | dose: 25.0 mg/kg/injection, schedule: Q01DX009 (ip), vehicle: Klucel (hydroxypropylcellulose) (HPC) 96 % of control and 100 % of control | dose: 25.0 mg/kg/injection, schedule: Q04DX003 (ip), vehicle: Klucel (hydroxypropylcellulose) (HPC) 96 % of control | dose: 50.0 mg/kg/injection, schedule: Q01DX001 (ip), vehicle: Klucel (hydroxypropylcellulose) (HPC) 93 % of control

COc1c2ccoc2c(OCC=C(C)C)c2oc(=O)ccc12
inactive: dose: 100.0 mg/kg/injection, schedule: Q01DX009 (ip), vehicle: other 98 % of control | dose: 100.0 mg/kg/injection, schedule: Q04DX003 (ip), vehicle: saline sonified 107 % of control | dose: 200.0 mg/kg/injection, schedule: Q01DX009 (ip), vehicle: other 111 % of control | dose: 200.0 mg/kg/injection, schedule: Q04DX003 (ip), vehicle: saline sonified 102 % of control | dose: 400.0 mg/kg/injection, schedule: Q01DX009 (ip), vehicle: other 95 % of control | dose: 400.0 mg/kg/injection, schedule: Q04DX003 (ip), vehicle: saline sonified 97 % of control

O=[N+]([O-])c1ccc(C=Nc2ccc(C(c3ccccc3)(c3ccccc3)c3ccccc3)cc2)s1
inactive: [1] 95 % of control | [2] 97 % of control | [3] 93 % of control

CCCCCC(=O)c1ccc(O)cc1O
inactive: dose: 12.5 mg/kg/injection, schedule: Q01DX009 (ip), vehicle: gum acacia 104 % of control | dose: 25.0 mg/kg/injection, schedule: Q01DX009 (ip), vehicle: gum acacia 109 % of control | dose: 50.0 mg/kg/injection, schedule: Q01DX009 (ip), vehicle: gum acacia 93 % of control and 95 % of control | dose: 100.0 mg/kg/injection, schedule: Q04DX003 (ip), vehicle: gum acacia 95 % of control | dose: 200.0 mg/kg/injection, schedule: Q04DX003 (ip), vehicle: gum acacia 94 % of control

N#Cc1c2ccccc2nc2ccccc12
inactive: dose: 50.0 mg/kg/injection, schedule: Q01DX001 (ip), vehicle: carboxymethylcellulose (CMC) 90 % of control | dose: 100.0 mg/kg/injection, schedule: Q01DX001 (ip), vehicle: carboxymethylcellulose (CMC) 92 % of control | dose: 200.0 mg/kg/injection, schedule: Q01DX001 (ip), vehicle: carboxymethylcellulose (CMC) 90 % of control | dose: 400.0 mg/kg/injection, schedule: Q01DX001 (ip), vehicle: carboxymethylcellulose (CMC) 90 % of control

c1ccc(C2CC(c3ccccc3)S2)cc1 (centres undefined)
inactive: [1] 100 % of control | [2] 105 % of control | [3] 105 % of control

N#Cc1ccc(Oc2ccc(C#N)cc2)cc1
inactive: [14] 100 % of control | [16] 97 % of control | [18] 101 % of control

Nc1nc2c(nc([Se])n2C2OC(CO)C(O)C2O)c(=O)[nH]1 (centres undefined)
inactive: dose: 100.0 mg/kg/injection, schedule: Q01DX005 (ip), vehicle: saline 98 % of control | dose: 200.0 mg/kg/injection, schedule: Q01DX005 (ip), vehicle: saline 98 % of control

N#CC(c1cccnc1)N1CCOCC1 (centres undefined)
inactive: dose: 25.0 mg/kg/injection, schedule: Q04DX002 (ip), vehicle: saline with Tween-80 103 % of control | dose: 50.0 mg/kg/injection, schedule: Q04DX002 (ip), vehicle: saline with Tween-80 100 % of control | [13] 96 % of control

Nc1nc(=O)n(C2OC(CO)C(O)C2O)c2ccccc12 (centres undefined)
inactive: [6] 101 % of control | [7] 101 % of control | [8] 101 % of control

CS(=O)(=O)OCC1CCCCC1COS(C)(=O)=O (centres undefined)
inactive: dose: 100.0 mg/kg/injection, schedule: Q01DX009 (ip), vehicle: Klucel (hydroxypropylcellulose) (HPC) 107 % of control | dose: 200.0 mg/kg/injection, schedule: Q01DX009 (ip), vehicle: Klucel (hydroxypropylcellulose) (HPC) 104 % of control | dose: 400.0 mg/kg/injection, schedule: Q01DX009 (ip), vehicle: Klucel (hydroxypropylcellulose) (HPC) 93 % of control

CC(C)CCCC(C)C1CCC2C3CC4C(F)(F)C45CC4(CCC5(C)C3CCC12C)OCCO4 (centres undefined)
inactive: dose: 100.0 mg/kg/injection, schedule: Q04DX002 (ip), vehicle: other 101 % of control | dose: 200.0 mg/kg/injection, schedule: Q04DX002 (ip), vehicle: other 90 % of control | dose: 400.0 mg/kg/injection, schedule: Q04DX002 (ip), vehicle: other 93 % of control

O=C1c2cccc(Sc3ccccc3)c2C(=O)c2c(Sc3ccccc3)cccc21
inactive: [14] 91 % of control | [16] 88 % of control | [18] 91 % of control
